Experimental data reported in patent US8916599B2, “1H-benz imidazole-5-carboxamides as anti-inflammatory agents” (Orexo AB, priority 2008, dated 2014).

biological target: T1, recombinant human mPGES-1 (Homo sapiens, UniProt O14684); test: mPGES-1 inhibition test (microsomes, PGH2 substrate, HTRF detection of PGE2); type: biochemical; details: inhibition of mPGES-1 at 1 μM (marked in cell)
T1 construct: made in house; host or cells: Rosetta E. coli (microsomal/membrane fraction)
T1 sequence (O14684 1-152): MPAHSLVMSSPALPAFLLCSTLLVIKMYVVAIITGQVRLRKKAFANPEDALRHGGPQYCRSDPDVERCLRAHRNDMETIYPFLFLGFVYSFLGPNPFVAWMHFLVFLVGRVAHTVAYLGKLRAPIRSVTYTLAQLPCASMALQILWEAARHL
Protocol: Microsomes from Rosetta E. coli bacteria expressing recombinant human mPGES-1 is dissolved in 0.1 M KPi pH 7.4 buffer containing 2.5 mM GSH. 50 μl of the enzyme is subsequently dispensed in a 384-well plate. 0.5 μl of the inhibitor dissolved in DMSO at is thereafter added to each well and incubated for 25 minutes at room temperature. Subsequently, 2 μl of PGH2 dissolved in an appropriate solvent is added to each well and after one minute the acidified stop solution containing FeCl2 is added. 4 μl of the total volume is transferred to a separate plate and diluted 750-fold in two separate steps before HTRF detection of PGE2.
The HTRf detection is performed by the use of a commercially available kit from CisBio essentially according to the manufacturer's protocol. Briefly, 10 μl of the diluted sample is transferred to a white 384-well plate. 5 μl of d2 and 5 μl Eu3+-Cryptate labeled anti-PGE2 is added to each well containing samples by the use of a Multidrop. The plate is covered with a plastic self-adhesive film, centrifuged at 1200 rpm for 1 minute and subsequently stored at +4° C. over night.
After over night incubation the fluorescence is measured by the use of an appropriate microplate reader. The fluorescence of europium cryptate, and d2 are measured using the following excitation and emission wavelength, europium cryptate: λmax^ex=307 nm, λmax^em=620 nm and d2: λmax^ex=620 nm, λmax^em=665 nm), respectively. The extent of the specific FRET is measured as a ratio of the emission intensity at 665 nm vs. that at 620 nm. A standard curve using synthetic PGE2 is used to quantify the amount of PGE2 in unknown samples.

inhibition at 1 µM [%] | Structure (SMILES)
100 | O=C(Nc1ccc(F)c(Br)c1)c1ccc2[nH]c(Nc3c(Cl)cccc3Cl)nc2c1 [Example 70, 2-(2,6-Dichloro-phenylamino)-1H-benzimidazole-5-carboxylic acid (3-bromo-4-fluoro-phenyl)-amide]
100 | O=C(Nc1ccc(Cl)c(C(F)(F)F)c1)c1ccc2[nH]c(Nc3c(Cl)cccc3Cl)nc2c1 [Example 282, 2-(2,6-Dichloro-phenylamino)-1H-benzimidazole-5-carboxylic acid (4-chloro-3-trifluoromethyl-phenyl)-amide]

same assay, conditions: inhibition of mPGES-1 at 10 μM

inhibition at 10 µM [%] | Structure (SMILES)
79 | O=C(NCc1ccccn1)c1ccc2[nH]c(Nc3c(Cl)cccc3Cl)nc2c1 [Example 235, 2-(2,6-Dichloro-phenylamino)-1H-benzimidazole-5-carboxylic acid (pyridin-2-ylmethyl)-amide]
99 | Cn1c(Nc2c(Cl)cccc2Cl)nc2cc(C(=O)NC3CCC4(CC4)C3)ccc21 (stereo not drawn) [Example 436, 2-(2,6-Dichlorophenylamino)-1-methyl-N-(spiro[2.4]heptan-5-yl)-1H-benzimidazole-5-carboxamide]
92 | Cn1c(Nc2c(Cl)cccc2Cl)nc2cc(C(=O)NCc3cnccc3C(F)(F)F)c(F)cc21 [Example 126, 2-(2,6-Dichloro-phenylamino)-6-fluoro-1-methyl-1H-benzimidazole-5-carboxylic acid (4-trifluoromethyl-pyridin-3-ylmethyl)-amide]
100 | Cn1c(Nc2c(Cl)cccc2Cl)nc2cc(C(=O)NC3CCCC(C(F)(F)F)C3)ccc21 (stereo not drawn) [Example 255, 2-(2,6-Dichloro-phenylamino)-1-methyl-1H-benzimidazole-5-carboxylic acid (3-trifluoromethyl-cyclohexyl)-amide]
85 | Cn1c(Nc2c(F)cccc2Cl)nc2cc(C(=O)NCC3CC3)c(F)cc21 [Example 546, 2-(2-Chloro-6-fluorophenylamino)-N-(cyclopropylmethyl)-6-fluoro-1-methyl-1H-benzimidazole-5-carboxamide]
100 | COc1cc2c(cc1C(=O)NCc1ncccc1C1CC1)nc(Nc1c(Cl)cccc1Cl)n2C [Example 367, N-((3-Cyclopropylpyridin-2-yl)-methyl)-2-(2,6-dichlorophenylamino)-6-methoxy-1-methyl-1H-benzimidazole-5-carboxamide]
71 | CCNC(=O)c1cc(Br)c2c(c1)nc(Nc1c(Cl)cccc1Cl)n2C [Example 352, 7-Bromo-2-(2,6-dichloro-phenylamino)-1-methyl-1H-benzimidazole-5-carboxylic acid ethylamide]
93 | O=C(Nc1cc(Cl)ccn1)c1ccc2c(c1)nc(Nc1c(Cl)cccc1Cl)n2CCCO [Example 263, 2-(2,6-Dichloro-phenylamino)-1-(3-hydroxy-propyl)-1H-benzimidazole-5-carboxylic acid (4-chloro-pyridin-2-yl)-amide]
95 | Cn1c(Nc2ccc(Cl)cc2Cl)nc2cc(C(=O)Nc3ccc(Br)cc3)ccc21 [Example 519, N-(4-Bromophenyl)-2-(2,4-dichlorophenylamino)-1-methyl-1H-benzimidazole-5-carboxamide]
100 | Cn1c(Nc2c(F)cccc2Cl)nc2cc(C(=O)NC3CCC4(CC3)CC4)c(F)cc21 [Example 384]
99 | O=C(Nc1ccc(C(F)(F)F)cn1)c1ccc2[nH]c(Nc3c(Cl)cccc3Cl)nc2c1 [Example 191, 2-(2,6-Dichloro-phenylamino)-1H-benzimidazole-5-carboxylic acid (5-trifluoromethyl-pyridin-2-yl)-amide]
94 | N#Cc1ccnc(NC(=O)c2ccc3[nH]c(Nc4c(Cl)cccc4Cl)nc3c2)c1 [Example 539, N-(4-Cyanopyridin-2-yl)-2-(2,6-dichlorophenylamino)-1H-benzimidazole-5-carboxamide]
99 | COc1cc2[nH]c(Nc3c(Cl)ccc(Cl)c3F)nc2cc1C(=O)NC1CCCCC1 [Example 612, 2-(3,6-Dichloro-2-fluoro-phenylamino)-N-cyclohexyl-6-methoxy-1H-benzimidazole-5-carboxamide]
100 | CC(C)Oc1cc2[nH]c(Nc3c(Cl)ccc(Cl)c3F)nc2cc1C(=O)NC1CCC(C(F)(F)F)CC1 (stereo not drawn) [Example 620, 2-(3,6-Dichloro-2-fluoro-phenylamino)-6-isopropoxy-N-(4-trans-trifluoromethyl-cyclohex-1-yl)-1H-benzimidazole-5-carboxamide]
100 | O=C(NC1CCC2(CC1)CC2)c1cc2nc(Nc3c(Cl)cccc3Cl)[nH]c2cc1F [Example 387, 2-(2,6-Dichlorophenylamino)-6-fluoro-N-(spiro[2.5]octan-6-yl)-1H-benzimidazole-5-carboxamide]
100 | COc1cc2nc(Nc3c(Cl)cccc3Cl)[nH]c2cc1C(=O)NC1CCCCC1 [Example 199, N-(Cyclohexyl)-2-(2,6-dichlorophenylamino)-6-methoxy-1H-benzimidazole-5-carboxamide]
99 | Cc1cccc(Cl)c1Nc1nc2cc(C(=O)Nc3ccccc3)ccc2[nH]1 [Example 12, 2-(2-Chloro-6-methyl-phenylamino)-1H-benzimidazole-5-carboxylic acid-phenylamide]
100 | COc1cc2c(cc1C(=O)N[C@H]1CC[C@H](C(F)(F)F)CC1)nc(Nc1c(Cl)cccc1Cl)n2C [Example 369, 2-(2,6-Dichlorophenylamino)-6-methoxy-1-methyl-N-((1r,4r)-4-trifluoromethyl-cyclohexyl)-1H-benzimidazole-5-carboxamide]
100 | O=C(N[C@H]1CC[C@H](C(F)(F)F)CC1)c1cc2nc(Nc3c(Cl)ccc(Cl)c3F)[nH]c2cc1F [Example 597, 2-(3,6-Dichloro-2-fluoro-phenylamino)-N-(trans-4-trifluoromethyl-cyclohex-1-yl)-6-fluoro-1H-benzimidazole-5-carboxamide]
91 | COc1cc2[nH]c(Nc3c(Cl)ccc(Cl)c3F)nc2cc1C(=O)NC1CCC2(CC1)CC2 [Example 613, 2-(3,6-Dichloro-2-fluoro-phenylamino)-N-(spiro[2.5]oct-6-yl)-6-methoxy-1H-benzimidazole-5-carboxamide]
60 | Cn1c(Nc2c(Cl)cccc2Cl)nc2cc(C(=O)NCc3c(C(F)(F)F)ccc[n+]3[O-])c(F)cc21 [Example 568, 2-((2-(2,6-Dichlorophenylamino)-6-fluoro-1-methyl-1H-benzimidazole-5-carboxamido)methyl)-3-trifluoromethyl-pyridine 1-oxide]
100 | CC(C)(C)[C@H]1CC[C@@H](NC(=O)c2cc3nc(Nc4c(Cl)cccc4Cl)[nH]c3cc2F)CC1 [Example 374, N-((1s,4s)-4-tert.-Butylcyclohexyl)-2-(2,6-dichlorophenylamino)-6-fluoro-1H-benzimidazole-5-carboxamide]
100 | O=C(Nc1cc(Cl)ccn1)c1cc2[nH]c(Nc3c(Cl)cccc3Cl)nc2cc1F [Example 142, 2-(2,6-Dichloro-phenylamino)-6-fluoro-3H-benzimidazole-5-carboxylic acid (4-chloro-pyridin-2-yl)-amide]
87 | Cn1c(Nc2c(Cl)cccc2Cl)nc2cc(C(=O)NC3CCCCC3O)ccc21 (stereo not drawn) [Example 237, 2-(2,6-Dichloro-phenylamino)-1-methyl-1H-benzimidazole-5-carboxylic acid (2-hydroxy-cyclohexyl)-amide]
97 | O=C(Nc1ccc(Br)cc1)c1ccc2[nH]c(Nc3ccccc3Br)nc2c1 [Example 279, 2-(2-Bromo-phenylamino)-1H-benzimidazole-5-carboxylic acid (4-bromo-phenyl)-amide]
100 | Cn1c(Nc2c(F)cccc2Cl)nc2cc(C(=O)NC3CCCC(C)(C)C3)c(F)cc21 (stereo not drawn) [Example 404, 2-(2-Chloro-6-fluorophenylamino)-N-(3,3-dimethylcyclohexyl)-6-fluoro-1-methyl-1H-benzimidazole-5-carboxamide]
99 | CCOc1cc2c(cc1C(=O)NC1CCC3(CC1)CC3)nc(Nc1c(Cl)ccc(Cl)c1F)n2C [Example 609, 2-(3,6-Dichloro-2-fluoro-phenylamino)-6-ethoxy-N-(spiro[2.5]oct-6-yl)-1-methyl-1H-benzimidazole-5-carboxamide]

same assay, conditions: inhibition of mPGES-1 at 10 μM; 10 µM

% inhib. [%] | Structure (SMILES)
77 | Cn1c(Nc2c(Cl)cccc2Cl)nc2cc(C(=O)NCc3ccccn3)c(F)cc21 [Example 552, 2-(2,6-Dichlorophenylamino)-6-fluoro-1-methyl-N-(pyridin-2-ylmethyl)-1H-benzimidazole-5-carboxamide]
